Assays:
Assay in all cases: relative viability (nuclei count vs DMSO), 5 days (fraction); higher = more cells survive
GW-2580 = compound: COC1=CC=C(C=C1)COC2=C(C=C(C=C2)CC3=CN=C(N=C3N)N)OC [GW-2580]
How it was run: (§1)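 Five library-drug doses spaced by √10 were pinned onto vehicle-anchored 1536-well plates of lung cancer cell lines that had been kept overnight at 37 °C. Cells went 5 days without medium change, then were fixed, permeabilised and Hoechst-stained together, imaged at 4× and counted by MetaXpress. Viability is the ratio of treated-well to vehicle-well nuclei, taken as a median over plates. Plates required control CV below 25% and at least one doubling.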

Fedratinib = compound: Cc1cnc(Nc2ccc(OCCN3CCCC3)cc2)nc1Nc1cccc(S(=O)(=O)NC(C)(C)C)c1 [Fedratinib]
How it was run: as §1

GW-2580 + Pemetrexed = compound: COC1=CC=C(C=C1)COC2=C(C=C(C=C2)CC3=CN=C(N=C3N)N)OC [GW-2580] + Nc1nc2[nH]cc(CCc3ccc(C(=O)N[C@@H](CCC(=O)O)C(=O)O)cc3)c2c(=O)[nH]1 [Pemetrexed] (partner 0.2 µM)
How it was run: (§2)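 Lung cancer cell lines were pin-tool dosed in 1536-well plates on the day after seeding, with either a lone drug or a fixed anchor-drug dose plus five library-drug doses (not always all listed) in √10 steps. Nuclei were counted on 4× images after 5 days. Relative viability is the ratio of treated-well to vehicle-well nuclei counts, with each value a median of duplicate plates.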

GW-2580 + Alpelisib = compound: COC1=CC=C(C=C1)COC2=C(C=C(C=C2)CC3=CN=C(N=C3N)N)OC [GW-2580] + Cc1nc(NC(=O)N2CCC[C@H]2C(N)=O)sc1-c1ccnc(C(C)(C)C(F)(F)F)c1 [Alpelisib] (partner 2 µM)
How it was run: as §2

Fedratinib + Bortezomib = compound: Cc1cnc(Nc2ccc(OCCN3CCCC3)cc2)nc1Nc1cccc(S(=O)(=O)NC(C)(C)C)c1 [Fedratinib] + CC(C)C[C@H](NC(=O)[C@H](Cc1ccccc1)NC(=O)c1cnccn1)B(O)O [Bortezomib] (partner 0.002 µM)
How it was run: as §2

Cell Line	relative viability (GW-2580; 0.08 µM)	relative viability (GW-2580; 0.8 µM)	relative viability (GW-2580; 2.53 µM)	relative viability (GW-2580; 8 µM)	relative viability (Fedratinib; 0.1 µM)	relative viability (Fedratinib; 0.3162 µM)	relative viability (Fedratinib; 1 µM)	relative viability (GW-2580 + Pemetrexed; first compound 0.08 µM)	relative viability (GW-2580 + Pemetrexed; first compound 0.8 µM)	relative viability (GW-2580 + Pemetrexed; first compound 2.53 µM)	relative viability (GW-2580 + Pemetrexed; first compound 8 µM)	relative viability (GW-2580 + Alpelisib; first compound 0.08 µM)	relative viability (GW-2580 + Alpelisib; first compound 0.8 µM)	relative viability (GW-2580 + Alpelisib; first compound 2.53 µM)	relative viability (GW-2580 + Alpelisib; first compound 8 µM)	relative viability (Fedratinib + Bortezomib; first compound 0.1 µM)	relative viability (Fedratinib + Bortezomib; first compound 0.3162 µM)	relative viability (Fedratinib + Bortezomib; first compound 1 µM)
NCI-H1975	1.04	1.12	0.935	0.87	0.933	0.939	0.798	0.311	0.309	0.323	0.309	0.693	0.778	0.647	0.596	0.388	0.405	0.163
CAL-12T	0.995	1.03	0.933	1.01	0.93	0.996	0.859	1.32	1.53	1.24	1.13	1.45	–	1.19	1.06	0.963	1.07	0.805
HCC-44	0.981	1.03	0.896	1.01	0.963	0.982	0.882	0.727	0.638	0.649	0.666	0.863	0.759	0.691	0.775	0.905	0.827	0.734
EKVX	0.962	1.22	0.81	0.941	1.06	0.952	0.978	0.434	0.392	0.355	0.358	0.898	1.02	0.91	0.874	1.11	1.11	1.06
NCI-H1651	1.06	1.08	0.952	0.977	0.958	0.984	0.945	0.605	0.711	0.578	0.45	1.26	1.17	0.954	0.934	0.965	0.951	0.871
SW 1573	1.05	0.994	0.868	0.946	0.987	0.998	0.897	0.908	0.883	0.861	0.639	0.841	0.797	0.698	0.674	1.05	0.911	0.983
A-427	1.05	1.11	0.86	0.881	0.928	1.02	0.555	0.936	1.19	0.842	0.76	1.08	1.12	1.02	1.09	0.95	0.889	0.558
NCI-H2347	0.989	1.1	0.88	1.07	1.04	0.932	0.938	0.468	0.473	0.464	0.446	1.02	0.968	0.915	1.05	0.82	0.874	0.722
NCI-H1355	1.03	1.11	0.837	0.976	1	0.993	0.904	1.09	1.13	0.914	0.965	0.816	0.937	0.694	0.883	1.21	1.24	1.09
PC-3 [JPC-3]	1.12	1.14	1.09	0.964	0.987	1.03	0.953	0.908	1.39	0.861	0.658	1.05	1.09	0.998	1.01	0.796	0.781	0.869
NCI-H2228	1.18	1.16	0.921	0.882	0.884	0.785	0.723	0.408	0.306	0.338	0.327	0.91	0.886	0.627	0.775	1.35	0.866	0.408
HOP-62	1.06	1.12	0.982	1.03	1.01	0.907	0.987	0.394	0.285	0.303	0.288	0.914	1.01	0.694	1.07	1.01	0.92	0.785
HARA	1.11	1.16	0.951	0.902	0.863	0.903	0.803	0.289	0.254	0.29	0.299	0.958	0.927	0.578	0.8	1.41	1.18	0.404
NCI-H838	1.09	1.05	0.884	1	0.928	0.996	0.8	0.268	0.262	0.234	0.266	1.01	1.06	1.15	1.07	0.588	0.808	0.208
NCI-H1755	1.06	1.07	0.944	0.878	0.991	1	0.909	0.677	0.474	0.429	0.43	1.02	1.02	0.787	0.945	0.938	0.92	0.903
HCC-78	0.95	1.21	0.675	0.933	0.87	0.869	0.96	0.972	0.939	0.909	0.948	0.368	0.363	0.28	0.304	0.439	0.535	0.511
NCI-H322M	0.941	1.1	0.971	0.946	0.873	1	0.678	0.582	0.626	0.676	0.567	0.833	0.912	0.855	0.795	1.19	1.16	1.06

Cell Line	relative viability (GW-2580; 0.08 µM)	relative viability (GW-2580; 0.8 µM)	relative viability (GW-2580; 2.53 µM)	relative viability (GW-2580; 8 µM)	relative viability (Fedratinib; 0.1 µM)	relative viability (Fedratinib; 0.3162 µM)	relative viability (Fedratinib; 1 µM)	relative viability (GW-2580 + Pemetrexed; first compound 0.08 µM)	relative viability (GW-2580 + Pemetrexed; first compound 0.8 µM)	relative viability (GW-2580 + Pemetrexed; first compound 2.53 µM)	relative viability (GW-2580 + Pemetrexed; first compound 8 µM)	relative viability (GW-2580 + Alpelisib; first compound 0.08 µM)	relative viability (GW-2580 + Alpelisib; first compound 0.8 µM)	relative viability (GW-2580 + Alpelisib; first compound 2.53 µM)	relative viability (GW-2580 + Alpelisib; first compound 8 µM)	relative viability (Fedratinib + Bortezomib; first compound 0.1 µM)	relative viability (Fedratinib + Bortezomib; first compound 0.3162 µM)	relative viability (Fedratinib + Bortezomib; first compound 1 µM)
NCI-H3122	1.03	1.09	1.06	1.01	1.05	1.02	0.892	0.212	0.211	0.203	0.207	0.85	0.878	0.671	0.758	0.991	0.981	0.485
COR-L23	1.15	1.12	1.03	0.932	0.958	1.04	1.03	0.197	0.196	0.205	0.194	0.856	0.83	0.611	0.815	1.14	0.975	0.938
NCI-H2087	1	1.08	0.942	0.933	1	0.99	0.856	0.68	0.713	0.7	0.625	1.23	0.999	1.02	0.613	0.806	0.754	0.259
LC-2-ad	1.04	1.14	1.01	0.988	0.983	1.03	0.588	0.268	0.285	0.253	0.278	0.934	0.932	0.875	0.87	1.04	0.96	0.0819
NCI-H1915	1.04	1.02	1.07	0.969	1.03	0.97	0.658	0.519	0.53	0.509	0.486	1.06	1.12	1.09	1.02	0.986	0.872	0.662
NCI-H2023	1.12	1.07	0.933	1.06	1.02	0.962	0.754	0.344	0.279	0.238	0.205	0.611	0.625	0.513	0.604	1.08	0.95	0.0957
COR-L 105	1.01	1.05	0.932	0.908	0.827	1.1	0.664	1.26	1.08	1.21	0.962	0.91	1.28	0.946	0.902	0.685	0.839	0.289
RERF-LC-KJ	1.08	1.15	0.921	0.977	1.03	1.04	0.917	0.491	0.44	0.504	0.523	0.771	0.803	0.732	0.793	1.06	1.16	1.05
LXF-289	1.03	1.08	0.988	0.937	0.978	0.997	0.974	0.883	0.96	0.881	0.85	1.07	1.09	0.998	0.907	1.02	0.978	0.78
PC-14	1.07	1.19	0.966	0.969	0.986	1.09	0.906	0.14	0.136	0.137	0.127	0.995	1.14	0.864	0.906	0.885	0.81	0.951
NCI-H650	0.974	1.04	0.817	0.961	0.709	0.892	0.418	1.04	1.11	0.792	0.855	1.26	1.06	0.914	1.14	–	0.84	0.77
NCI-H1666	0.976	1.38	0.937	0.97	0.859	1.04	0.982	0.863	0.91	0.901	0.787	1.17	1.21	1	1.03	0.649	0.944	0.276
NCI-H2085	1.05	1.03	0.987	0.954	0.929	1.02	0.883	0.963	1.01	0.885	0.838	1.1	0.924	0.924	0.792	1.04	1.09	0.416
NCI-H1734	0.987	0.986	0.912	0.914	1	0.97	0.853	0.404	0.409	0.425	0.408	0.697	0.761	0.654	0.671	1.06	0.856	0.231
NCI-H2126	1.02	1.01	0.979	1.05	0.95	0.98	0.927	0.664	0.709	0.63	0.612	0.757	0.772	0.719	0.714	1.08	1.12	1.07
EMC-BAC-2	1.02	1.12	0.643	0.901	1.1	1.01	0.833	0.503	0.43	–	0.502	0.834	0.777	0.686	0.787	1.14	1.01	1.09
NCI-H1993	0.86	1.16	0.764	1.1	0.822	1.03	0.835	0.601	0.703	0.54	0.576	0.684	0.677	–	0.704	0.993	0.979	0.48
